In patent publication US20260374754A1, “N-((ISOQUINOLIN-6-YL)METHYL)-1H-PYRAZOLE-4-CARBOXAMIDE DERIVATIVES AS PLASMA KALLIKREIN INHIBITORS FOR THE TREATMENT OF HEREDITARY ANGIODEMA” (Takeda Pharmaceutical Company Limited, priority 2022, published 2026):

molecular target: human activated kallikrein enzyme (Homo sapiens, UniProt P03952); assay: Inhibition of human activated plasma kallikrein, fluorogenic PFR-AMC substrate, 500 pM enzyme format; format: biochemical; conditions: 500 pM activated kallikrein; 300 μM PFR-AMC; 30 min preincubation; 10 min room temperature; pH 7.5; read-out: Primary Dose Response Assay: Average EC50
Sequence (P03952 391-638 limits assumed): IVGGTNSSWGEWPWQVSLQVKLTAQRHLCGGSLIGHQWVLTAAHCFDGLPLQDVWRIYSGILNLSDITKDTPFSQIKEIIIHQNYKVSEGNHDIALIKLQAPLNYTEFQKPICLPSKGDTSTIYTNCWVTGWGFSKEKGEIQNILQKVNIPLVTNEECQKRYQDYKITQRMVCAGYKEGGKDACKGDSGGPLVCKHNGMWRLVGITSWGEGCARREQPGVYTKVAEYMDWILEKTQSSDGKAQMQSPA
Sequence (P03952 20-390 partner limits assumed): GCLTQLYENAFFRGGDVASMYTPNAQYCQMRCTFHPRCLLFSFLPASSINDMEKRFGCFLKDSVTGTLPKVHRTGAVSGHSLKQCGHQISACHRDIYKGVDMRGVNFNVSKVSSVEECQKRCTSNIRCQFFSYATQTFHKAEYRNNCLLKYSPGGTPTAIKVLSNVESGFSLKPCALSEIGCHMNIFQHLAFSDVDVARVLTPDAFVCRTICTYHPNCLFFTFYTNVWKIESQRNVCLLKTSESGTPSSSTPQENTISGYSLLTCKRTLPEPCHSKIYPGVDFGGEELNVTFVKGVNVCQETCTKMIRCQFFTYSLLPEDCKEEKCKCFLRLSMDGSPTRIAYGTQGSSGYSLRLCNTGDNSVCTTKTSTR
In short: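 500 pM activated kallikrein preincubated 30 min at room temperature with inhibitors in pH 7.5 Tris/EDTA/NaCl buffer with PEG-400 and Triton X-100. Reaction started with 300 μM PFR-AMC, run 10 min at room temperature; AMC fluorescence read at ex 380/em 460 nm.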

| SMILES | EC50 [nM] |
| --- | --- |
| Cc1cc2c(N)nccc2c(C)c1CNC(=O)c1cnn(Cc2cc3cc(Br)ccc3s2)c1 [Example 51, N-((1-amino-5,7-dimethylisoquinolin-6-yl)methyl)-1-((5-bromobenzo[b]thiophen-2-yl)methyl)-1H-pyrazole-4-carboxamide] | < 1 |
| Cc1cc2c(N)nccc2c(C)c1CNc1cc(OCc2ccc3nccc(C)c3c2)cnn1 [Example 421, 5,7-dimethyl-6-(((5-((4-methylquinolin-6-yl)methoxy)pyridazin-3-yl)amino)methyl)isoquinolin-1-amine, formic acid] | 1 to 10 |
| Cc1cc2c(N)nccc2c(C)c1CNc1nsc(NCc2cn3cc(C4CC4)ccc3n2)n1 [Example 511, N^3-((1-amino-5,7-dimethylisoquinolin-6-yl)methyl)-N^5-((6-cyclopropylimidazo[1,2-a]pyridin-2-yl)methyl)-1,2,4-thiadiazole-3,5-diamine] | 1 to 10 |
| Cc1cc2c(N)nccc2c(C)c1CNc1cc(NCc2ccc3ncc(Cl)cc3c2)ncn1 [Example 309, N^4-((1-amino-5,7-dimethylisoquinolin-6-yl)methyl)-N^6-((3-chloroquinolin-6-yl)methyl)pyrimidine-4,6-diamine] | < 1 |
| COc1ccc2cc(CN(C)c3cc(NCc4c(C)cc5c(N)nccc5c4C)ncn3)ccc2c1 [Example 318, N^4-((1-amino-5,7-dimethylisoquinolin-6-yl)methyl)-N^6_((6-methoxynaphthalen-2-yl)methyl)-N^6-methylpyrimidine-4,6-diamine] | 100 to 1000 |
| COCc1c(C(=O)NCc2c(C)cc3c(N)nccc3c2C)cnn1Cc1cnc(N2CCCC2)nc1 [Example 161, N-((1-amino-5,7-dimethylisoquinolin-6-yl)methyl)-5-(methoxymethyl)-1-((2-(pyrrolidin-1-yl)pyrimidin-5-yl)methyl)-1H-pyrazole-4-carboxamide] | 10 to 100 |
| Cc1cc2c(N)nccc2c(C)c1CNC(=O)c1cnn(Cc2ccc3ncccc3n2)c1 [Example 150, 1-((1,5-naphthyridin-2-yl)methyl)-N-((1-amino-5,7-dimethylisoquinolin-6-yl)methyl)-1H-pyrazole-4-carboxamide] | 10 to 100 |
| Cc1cc2c(N)nccc2c(C)c1CNc1cn2c(Cc3ccc4ccccc4c3)ncc2cn1 [Example 523, 5,7-dimethyl-6-(((3-(naphthalen-2-ylmethyl)imidazo[1,5-a]pyrazin-6-yl)amino)methyl)isoquinolin-1-amine] | > 1000 |
| Cc1cc2c(N)nccc2c(C)c1CNc1cc(NCc2ccc(OC(F)(F)C(=O)N(C)C)cc2)ncn1 [Example 352, 2-(4-(((6-(((1-amino-5,7-dimethylisoquinolin-6-yl)methyl)amino)pyrimidin-4-yl)amino)methyl)phenoxy)-2,2-difluoro-N,N-dimethylacetamide] | 10 to 100 |
| Cc1cc2c(N)nccc2c(C)c1CNC(=O)c1cnn(Cc2ccc(C(C)C(=O)N(C)C)cc2)c1 (centres unmarked) [Example 119, N-((1-amino-5,7-dimethylisoquinolin-6-yl)methyl)-1-(4-(1-(dimethylamino)-1-oxopropan-2-yl)benzyl)-1H-pyrazole-4-carboxamide] | < 1 |
| Cc1c(CNC(=O)c2cnn(Cc3ccccc3)c2)c(C2(C)CC2)cc2c(N)nccc12 [Example 175, N-((1-amino-5-methy1-7-(1-methylcyclopropyl)isoquinolin-6-y1)methyl)-1-benzyl-1H-pyrazole-4-carboxamide] | 10 to 100 |
| Cc1cc2c(N)nccc2c(C)c1CNC(=O)c1cnn(Cc2cn3cccc(C)c3n2)c1 [Example 54, N-((1-amino-5,7-dimethylisoquinolin-6-yl)methyl)-1-((8-methylimidazo[1,2-a]pyridin-2-yl)methyl)-1H-pyrazole-4-carboxamide] | 1 to 10 |
| Cc1cc2c(N)nccc2c(C)c1CNc1cc(NCc2ccc(OCC(=O)N3CCCC3)cc2)ncn1 [Example 345, 2-(4-(((6-(((1-amino-5,7-dimethylisoquinolin-6-yl)methyl)amino)pyrimidin-4-yl)amino)methyl)phenoxy)-1-(pyrrolidin-1-yl)ethan-1-one] | < 1 |
| Cc1cc2c(N)nccc2c(C)c1CNc1cc(OCc2ccc(Cc3cccn4ccnc34)cc2)cnn1 [Example 444, 6-(((5-((4-(imidazo[1,2-a]pyridin-8-ylmethyl)benzyl)oxy)pyridazin-3-yl)amino)methyl)-5,7-dimethylisoquinolin-1-amine] | < 1 |
| Cc1cc2c(N)nccc2c(C)c1CNc1cnnc(OCc2ccc(CC(=O)N(C)C)cc2)c1 [Example I-462, 2-(4-(((5-(((1-amino-5,7-dimethylisoquinolin-6-yl)methyl)amino)pyridazin-3-yl)oxy)methyl)phenyl)-N,N-dimethylacetamide] | > 1000 |
| C/C=C\c1ccc2nc(Cn3ccc(C(=O)NCc4c(C)cc5c(N)nccc5c4C)n3)cn2c1 [Example 177, (Z)-N-((1-amino-5,7-dimethylisoquinolin-6-yl)methyl)-1-((6-(prop-1-en-1-yl)imidazo[1,2-a]pyridin-2-yl)methyl)-1H-pyrazole-3-carboxamide] | < 1 |

| SMILES | EC50 [nM] |
| --- | --- |
| Cc1cc2c(N)nccc2c(C)c1CNc1cc(N(C)Cc2ccc3ncccc3c2)ncn1 [Example 308, N^4-((1-amino-5,7-dimethylisoquinolin-6-yl)methyl)-N^6-methyl-N^6-(quinolin-6-ylmethyl)pyrimidine-4,6-diamine] | 10 to 100 |
| Cc1cc2c(N)nccc2c(C)c1CNC(=O)c1cnn(Cc2cc(Cl)cc(Cl)c2)c1 [Example 37, N-((1-amino-5,7-dimethylisoquinolin-6-yl)methyl)-1-(3,5-dichlorobenzyl)-1H-pyrazole-4-carboxamide] | 10 to 100 |
| Cc1cc2c(N)nccc2c(C)c1CNC(=O)c1cnn(Cc2cccc(C3CC3)c2)c1 [Example 31, N-((1-amino-5,7-dimethylisoquinolin-6-yl)methyl)-1-(3-cyclopropylbenzyl)-1H-pyrazole-4-carboxamide] | 1 to 10 |
| Cc1cc2c(N)nccc2c(C)c1CNC(=O)c1cnn(Cc2ccccc2F)c1 [Example 38, N-((1-amino-5,7-dimethylisoquinolin-6-yl)methyl)-1-(2-fluorobenzyl)-1H-pyrazole-4-carboxamide] | > 1000 |
| Cc1cc2c(N)nccc2c(C)c1CNc1cc(OC(C)c2cn3nc(C4CC4)ccc3n2)ncn1 (centres unmarked) [Example 493, 6-(((6-(1-(6-cyclopropylimidazo[1,2-b]pyridazin-2-yl)ethoxy)pyrimidin-4-yl)amino)methyl)-5,7-dimethylisoquinolin-1-amine] | 10 to 100 |
| Cc1ncc2ccc(Cn3cc(C(=O)NCc4c(C)cc5c(N)nccc5c4C)cn3)cc2n1 [Example 16, N-((1-amino-5,7-dimethylisoquinolin-6-yl)methyl)-1-((2-methylquinazolin-7-yl)methyl)-1H-pyrazole-4-carboxamide] | 1 to 10 |
| Cc1cc2c(N)nccc2c(C)c1CNc1cc(NCc2ccc(C(F)(F)n3cccn3)cc2)ncn1 [Example 382, N^4-((1-amino-5,7-dimethylisoquinolin-6-yl)methyl)-N^6-(4-(difluoro(1H-pyrazol-1-yl)methyl)benzyl)pyrimidine-4,6-diamine] | 1 to 10 |
| Cc1cc2c(N)nccc2c(C)c1CNC(=O)c1cnn(Cc2cc(C(F)(F)F)cc(C(F)(F)F)c2)c1 [Example 95, N-((1-amino-5,7-dimethylisoquinolin-6-yl)methyl)-1-(3,5-bis(trifluoromethyl)benzyl)-1H-pyrazole-4-carboxamide] | 10 to 100 |
| Cc1cc2c(N)nccc2c(C)c1CNC(=O)c1cnn(C(CNC(=O)OC(C)(C)C)c2ccccc2)c1 (centres unmarked) [Example 181, tert-butyl (2-(4-(((1-amino-5,7-dimethylisoquinolin-6-yl)methyl)carbamoyl)-1H-pyrazol-1-yl)-2-phenylethyl)carbamate] | > 1000 |
| CCCCc1cc(COc2cc(NCc3c(C)cc4c(N)nccc4c3C)ncn2)cc2cc(Cl)cnc12 [Example 402, 6-(((6-((8-butyl-3-chloroquinolin-6-yl)methoxy)pyrimidin-4-yl)amino)methyl)-5,7-dimethylisoquinolin-1-amine] | 100 to 1000 |
| Cc1c(CNc2cc(NCc3ccc(Cn4ccccc4=O)cc3)cnn2)ccc2c(N)nccc12 [Example 536, 1-(4-(((6-(((1-amino-5-methylisoquinolin-6-yl)methyl)amino)pyridazin-4-yl)amino)methyl)benzyl)pyridin-2(1H)-one] | < 1 |
| Cc1cc2c(N)nccc2c(C)c1CNc1cc(OCc2ccc(CCn3cccn3)cc2)cnn1 [Example 278, 6-(((5-((4-(2-(1H-pyrazol-1-yl)ethyl)benzyl)oxy)pyridazin-3-yl)amino)methyl)-5,7-dimethylisoquinolin-1-amine] | 1 to 10 |
| Cc1cc2c(N)nccc2c(C)c1CNC(=O)c1cnn(Cc2cccc(C#N)c2)c1 [Example 94, N-((1-amino-5,7-dimethylisoquinolin-6-yl)methyl)-1-(3-cyanobenzyl)-1H-pyrazole-4-carboxamide] | 10 to 100 |
| Cc1cc2c(N)nccc2c(C)c1CNc1cc(OCc2ccc(CC(=O)N(C)C)cc2)cnn1 [Example I-465, 2-(4-(((6-(((1-amino-5,7-dimethylisoquinolin-6-yl)methyl)amino)pyridazin-4-yl)oxy)methyl)phenyl)-N,N-dimethylacetamide] | < 1 |
| Cc1cc2nc(Cn3cc(C(=O)NCc4c(C)cc5c(N)nccc5c4C)cn3)cn2cc1C [Example 102, N-((1-amino-5,7-dimethylisoquinolin-6-yl)methyl)-1-((6,7-dimethylimidazo[1,2-a]pyridin-2-yl)methyl)-1H-pyrazole-4-carboxamide] | < 1 |
| Cc1cc2c(N)nccc2c(C)c1CNC(=O)c1cnn(Cc2ccccc2)c1 [Example 160, N-((1-amino-5,7-dimethylisoquinolin-6-yl)methyl)-1-benzyl-1H-pyrazole-4-carboxamide] | 100 to 1000 |
